Reference: PubChem BioAssay AID1902 (Broad Institute, 2009)
Values joined by “and” are separate entries in the source; they are usually repeats but may differ in a detail not shown here. Equal values may be shown once. Active and inactive are the calls of the source.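 How the source made its calls: active means EC50 no more than a set limit of log units above the highest dose; inactive means the rest.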

Molecular target: S. pyogenes SKKanGAS, kanamycin survival, BacTiterGlo, 6 h
Assay: SKKanGAS survival reduction under kanamycin, dose response, streptokinase promoter inhibitor project, SKKanGAS strain, luminescence, dose confirmation (AID 1902);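 further: lower survival reflects blocked streptokinase promoter driving kanamycin resistance gene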

With `Cc1ccccc1C(=O)Nc1nc(=S)ss1` as the compound, how does the EC50 read?
Its EC50 is 2.46 µM.

For `COc1ccccc1-c1cc(=O)c2c(O)ccc([N+](=O)[O-])c2o1`, which EC50 is on record?
Its EC50 is 2.56 µM.

`Cc1cccc(NC(=S)Nc2ccc(Cl)c(Cl)c2)c1` was tested. Which EC50 did it give?
The EC50 was 9.6 µM.

With `Cc1[nH]n(-c2ccccc2)c(=O)c1/C=N\NC(=O)C1COc2ccccc2O1` (stereo not drawn) as the compound, how does the EC50 read?
Its EC50 is 1.37 µM.

For `CCc1ccc(Nc2n[n+](-c3ccccc3)c(-c3c(Cl)cccc3Cl)s2)cc1`, which EC50 is on record?
Its EC50 is 6.22 µM.

Which EC50 does the source give for `O=C(NC(=S)N1CCN(c2ccc(F)cc2)CC1)C12CC3CC(CC(C3)C1)C2` here?
The EC50 was 11.1 µM.

How did the EC50 turn out when `O=c1cc(N2CCCCC2)c(-c2ccccc2)nn1Cc1ccc(Cl)cc1Cl` was run?
Its EC50 is 3.04 µM.

How did the EC50 turn out when `CSc1cccc(-c2nnc(NC(=O)c3cccc(N4C(=O)CCC4=O)c3)o2)c1` was run?
Its EC50 is 2.04 µM.

With `COc1cc(O)c(CC=C(C)C)c(O)c1C(=O)CCc1ccc(O)cc1` as the compound, how does the EC50 read?
The EC50 was 2.76 µM.

For `Cc1ccc(Nc2nc3nonc3[nH]c2=O)cc1Cl`, which EC50 is on record?
The EC50 was 2.54 µM.

How did the EC50 turn out when `COc1ccc2oc(C(=O)Nc3nc4ccccc4[nH]3)c(C)c2c1` was run?
The EC50 was 5.62 µM.

For `Cc1cccc(NC(=O)c2cc3n(n2)C(C(F)(F)F)CC(c2ccc4c(c2)OCO4)N3)c1` (stereo not drawn), which EC50 is on record?
Its EC50 is 7.23 µM.

For `COc1ccc(C(=O)CSc2nnc(CNC(=O)c3ccc(S(=O)(=O)N(C)C)cc3)o2)cc1`, which EC50 is on record?
The EC50 was > 15 µM (inactive).

For `Oc1c(Cl)cc(Cl)cc1C=Nc1cc(C(F)(F)F)ccc1N1CCc2ccccc2C1`, which EC50 is on record?
Its EC50 is 3 µM.

For `CC1(C)CC(=O)C2=C(C1)c1c(ccc3ccccc13)NC2c1cc([N+](=O)[O-])cc([N+](=O)[O-])c1O` (stereo not drawn), which EC50 is on record?
Its EC50 is 4.55 µM.

With `Cc1ccc(-c2nn(CCC(=O)O)cc2/C=C\C(=O)c2ccc(Br)cc2)cc1` as the compound, how does the EC50 read?
Its EC50 is 6.54 µM.

With `CC(CNC(=S)Nc1cc(F)cc(F)c1)CSc1ccc(Cl)cc1` (stereo not drawn) as the compound, how does the EC50 read?
Its EC50 is 8.56 µM.

Which EC50 does the source give for `COc1ccc(-c2sc3ccc(OC)cc3c2C#CCCO)cc1` here?
Its EC50 is 9.27 µM.

With `FC(F)(F)c1cccc(NC(=S)N2CCCC2)c1` as the compound, how does the EC50 read?
Its EC50 is > 15 µM (inactive).

`C/C(=N\NC(=O)COc1ccccc1-c1ccccc1)c1ccc(O)cc1O` was tested. Which EC50 did it give?
The EC50 was 3.89 µM.

Which EC50 does the source give for `CC(C)c1ccc2[nH]c3c(c2c1)CCC/C3=N\NC(=O)c1ccncc1` here?
The EC50 was 2.43 µM.

With `Cc1cc(Nc2ccccc2)n(-c2nc3ccccc3[nH]2)n1` as the compound, how does the EC50 read?
The EC50 was 2.1 µM.

For `Cc1ccc(C(C)C)cc1NC(=O)Nc1ccc([N+](=O)[O-])cc1`, which EC50 is on record?
The EC50 was 3.75 µM.

For `COc1cccc(C2C3=C(N=c4s/c(=C\c5cccc(O)c5)c(=O)n42)c2ccccc2CC3)c1OC` (stereo not drawn), which EC50 is on record?
Its EC50 is 5.37 µM.

How did the EC50 turn out when `CCCc1nc2ccccc2c(C(=O)OCC(=O)Nc2ccc(S(=O)(=O)N3CCOCC3)cc2)c1CC` was run?
Its EC50 is 7.15 µM.

`O=c1oc2ccccc2c(O)c1C(c1ccc([N+](=O)[O-])cc1)c1c(O)c2ccccc2oc1=O` was tested. Which EC50 did it give?
Its EC50 is 6.3 µM.

Which EC50 does the source give for `CCN(CC)S(=O)(=O)c1ccc(N2CCOCC2)c(NC(=O)C2CSC3(C)CCC(=O)N23)c1` (stereo not drawn) here?
The EC50 was > 15 µM (inactive).

How did the EC50 turn out when `Cc1nc(Nc2cnc(/C=C/c3cc(C(=O)Nc4cccc(C(F)(F)F)c4)ccc3C)cn2)cc(N2CCNCC2)n1` was run?
Its EC50 is 6.36 µM.

How did the EC50 turn out when `O=C(NCc1ccc(F)cc1)C(=O)Nc1nc(C23CC4CC(CC(C4)C2)C3)cs1` was run?
Its EC50 is 0.637 µM.

`COc1ccc(NC2=NCC(Cc3ccc(Br)cc3)S2)cc1` (stereo not drawn) was tested. Which EC50 did it give?
The EC50 was 11.9 µM.

Which EC50 does the source give for `Cn1c(CNC(=O)CNC(=O)c2ccc(F)cc2)cc(=O)n(C)c1=O` here?
The EC50 was > 15 µM (inactive).

`FC(F)(F)c1cccc(NC(=S)Nc2ccc(Cl)c(Cl)c2)c1` was tested. Which EC50 did it give?
The EC50 was 2.45 µM.

How did the EC50 turn out when `COC(=O)c1cc(C(=O)Nc2nc3ccccc3[nH]2)cc([N+](=O)[O-])c1` was run?
Its EC50 is 8.85 µM.

With `Cc1ccc(Nc2nc(N/N=C\c3ccc4c(c3)OCO4)nc(N3CCOCC3)n2)cc1` as the compound, how does the EC50 read?
The EC50 was 4.5 µM.

Which EC50 does the source give for `O=C(Nc1nnc(C2CC2)s1)c1cc(-c2ccccc2)nn1-c1ccccc1` here?
The EC50 was 6.47 µM.

`CC(C)(C)c1ccc(C(=O)N/N=C/c2ccccn2)cc1` was tested. Which EC50 did it give?
The EC50 was 3.3 µM.

`O=[N+]([O-])c1cc(Br)c(O)c(/C=N/Nc2nc3ccccc3s2)c1` was tested. Which EC50 did it give?
Its EC50 is 1.23 µM.

`Cc1ccccc1/C=C/C(=O)c1ccc([N+](=O)[O-])o1` was tested. Which EC50 did it give?
The EC50 was 4.61 µM.

Which EC50 does the source give for `O=C(NNC(=O)c1ccccc1OCc1ccc(F)cc1)c1ccccc1O` here?
Its EC50 is 2.5 µM.

For `CCCCCCCCCCCCCCCCn1cc[n+](C)c1`, which EC50 is on record?
The EC50 was 1.9 µM and 2.05 µM.

`COc1ccc(-c2cn[nH]c2-c2ccc(OCc3ccccc3)cc2O)cc1` was tested. Which EC50 did it give?
The EC50 was 2.38 µM.

How did the EC50 turn out when `O=C(NCc1nnc(SCC(=O)N2CCOCC2)o1)c1c(F)cccc1F` was run?
Its EC50 is > 15 µM (inactive).

With `COc1ccc(O)c(C(=O)c2cc(SCC(=O)O)c3nc4sc5c(c4c(=O)n3c2)CCCC5)c1` as the compound, how does the EC50 read?
The EC50 was 4.1 µM.

How did the EC50 turn out when `Cc1cc(C)cc(C(=O)Nc2nc3ccccc3[nH]2)c1` was run?
Its EC50 is 6.04 µM.

How did the EC50 turn out when `COc1cc(C(=O)NC(=S)N(CCc2ccccc2)CCc2ccccc2)cc(OC)c1OC` was run?
The EC50 was 0.328 µM.

How did the EC50 turn out when `COc1ccc(C(NC(C)=O)c2cc(Cl)c3cccnc3c2O)cc1OC` (stereo not drawn) was run?
Its EC50 is 5.2 µM.

Which EC50 does the source give for `COc1ccc(-n2c(=S)[nH]c3cc(C(=O)Nc4ccc(C)c(F)c4)ccc3c2=O)c(OC)c1` here?
The EC50 was 2.84 µM.

Which EC50 does the source give for `N#Cc1c(N)nc(Sc2ccc(Cl)cc2)c(C#N)c1-c1ccccc1Cl` here?
Its EC50 is 6.03 µM.

`CN1c2ccccc2C(C)(C)C12C=Nc1c(ccc3ccccc13)O2` (stereo not drawn) was tested. Which EC50 did it give?
Its EC50 is 2.16 µM.

Which EC50 does the source give for `Cc1ccc(C2C(/C=C3/SC(=S)NC3=O)=C(c3cccs3)Oc3ccccc32)cc1` (stereo not drawn) here?
Its EC50 is 0.643 µM.

With `O=C(N/N=C/c1c(O)n(Cc2ccco2)c(=O)[nH]c1=O)c1ccccc1O` as the compound, how does the EC50 read?
The EC50 was 2.81 µM.

Which EC50 does the source give for `Cc1nnc(SCC2=C(C(=O)O)N3C(=O)C(NC(=O)c4cccc(F)c4F)C3SC2)s1` (stereo not drawn) here?
The EC50 was 0.269 µM.

For `CCn1cnc2sc(C(=O)Oc3cccc(C)c3)c(C)c2c1=O`, which EC50 is on record?
The EC50 was 4.08 µM.
